{"source": "patent US11833229B2", "about": "“Labeling precursors with squaric acid coupling” (SCV—SpezialChemikalienVertrieb GmbH, priority 2019, dated 2023)", "key": {"LNCap tumor": {"system": "LNCap tumor", "assay": "Ex vivo activities of [44Sc]Sc-AAZTA.QS.PSMA with and without 2-PMPA blocking", "assay_type": "in vivo, mice", "settings": "for Ex vivo activity kindneys: kidneys", "description": "The radiotracer [^44Sc]Sc-AAZTA.QS.PSMA was further examined in vivo in three mice, each carrying an LNCap tumor. In addition blocking tests were carried out on one of the mice. […] The same applies to the kidneys."}, "[1]": {"assay": "Stability of [44Sc]Sc-AAZTA.QS.PSMA", "assay_type": "in vitro ADME", "settings": "over a period of 24 hours", "description": "Similar to DATA, the AAZTA chelator can also be labeled with radio nuclides such as ^44Sc and ^68Ga under mild conditions. In the instant example, the radioisotope ^44Sc is used and the properties of the radiotracer [^44Sc]Sc-AAZTA.QS.PSMA are investigated. The synthesis shown in FIG. 44 was readily carried out with high yield. […] The stability of [^44Sc]Sc-AAZTA.QS.PSMA exceeds 95% over a period of 24 hours (FIG. 46)."}}}
{"smiles": "O=C(O)CCC(NC(=O)NC(CCCCNc1c(NCCNC(=O)CCCCC2(N(CC(=O)O)CC(=O)O)CN(CC(=O)O)CCN(CC(=O)O)C2)c(=O)c1=O)C(=O)O)C(=O)O.[44Sc+3]", "note": "(stereo not shown) [^44Sc.AAZTA.QS.KuE]", "values": [{"measurement": "Ex vivo activity LN", "setting": "LNCap tumor; Block (+PMPA)", "value": 0.39, "unit": "% ID/g"}, {"measurement": "Ex vivo activity LN", "setting": "LNCap tumor; mouse (1), no blocking", "value": 1.33, "unit": "% ID/g"}, {"measurement": "Ex vivo activity LN", "setting": "LNCap tumor; mouse (2), no blocking", "value": 0.38, "unit": "% ID/g"}, {"measurement": "Ex vivo activity blood", "setting": "LNCap tumor; Block (+PMPA)", "value": 0.34, "unit": "% ID/g"}, {"measurement": "Ex vivo activity blood", "setting": "LNCap tumor; mouse (1), no blocking", "value": 0.96, "unit": "% ID/g"}, {"measurement": "Ex vivo activity blood", "setting": "LNCap tumor; mouse (2), no blocking", "value": 0.41, "unit": "% ID/g"}, {"measurement": "Ex vivo activity bone", "setting": "LNCap tumor; Block (+PMPA)", "value": 0.10, "unit": "% ID/g"}, {"measurement": "Ex vivo activity bone", "setting": "LNCap tumor; mouse (1), no blocking", "value": 0.46, "unit": "% ID/g"}, {"measurement": "Ex vivo activity bone", "setting": "LNCap tumor; mouse (2), no blocking", "value": 0.29, "unit": "% ID/g"}, {"measurement": "Ex vivo activity heart", "setting": "LNCap tumor; Block (+PMPA)", "value": 0.11, "unit": "% ID/g"}, {"measurement": "Ex vivo activity heart", "setting": "LNCap tumor; mouse (1), no blocking", "value": 0.41, "unit": "% ID/g"}, {"measurement": "Ex vivo activity heart", "setting": "LNCap tumor; mouse (2), no blocking", "value": 0.14, "unit": "% ID/g"}, {"measurement": "Ex vivo activity kindneys", "setting": "LNCap tumor; Block (+PMPA)", "value": 7.97, "unit": "% ID/g"}, {"measurement": "Ex vivo activity kindneys", "setting": "LNCap tumor; mouse (1), no blocking", "value": 119.86, "unit": "% ID/g"}, {"measurement": "Ex vivo activity kindneys", "setting": "LNCap tumor; mouse (2), no blocking", "value": 42.76, "unit": "% ID/g"}, {"measurement": "Ex vivo activity liver", "setting": "LNCap tumor; Block (+PMPA)", "value": 0.16, "unit": "% ID/g"}, {"measurement": "Ex vivo activity liver", "setting": "LNCap tumor; mouse (1), no blocking", "value": 0.42, "unit": "% ID/g"}, {"measurement": "Ex vivo activity liver", "setting": "LNCap tumor; mouse (2), no blocking", "value": 0.16, "unit": "% ID/g"}, {"measurement": "Ex vivo activity lung", "setting": "LNCap tumor; Block (+PMPA)", "value": 0.06, "unit": "% ID/g"}, {"measurement": "Ex vivo activity lung", "setting": "LNCap tumor; mouse (1), no blocking", "value": 1.31, "unit": "% ID/g"}, {"measurement": "Ex vivo activity lung", "setting": "LNCap tumor; mouse (2), no blocking", "value": 0.59, "unit": "% ID/g"}, {"measurement": "Ex vivo activity muscle", "setting": "LNCap tumor; Block (+PMPA)", "value": 0.05, "unit": "% ID/g"}, {"measurement": "Ex vivo activity muscle", "setting": "LNCap tumor; mouse (1), no blocking", "value": 0.38, "unit": "% ID/g"}, {"measurement": "Ex vivo activity muscle", "setting": "LNCap tumor; mouse (2), no blocking", "value": 0.13, "unit": "% ID/g"}, {"measurement": "Ex vivo activity salivary glands", "setting": "LNCap tumor; Block (+PMPA)", "value": 0.11, "unit": "% ID/g"}, {"measurement": "Ex vivo activity salivary glands", "setting": "LNCap tumor; mouse (1), no blocking", "value": 0.51, "unit": "% ID/g"}, {"measurement": "Ex vivo activity salivary glands", "setting": "LNCap tumor; mouse (2), no blocking", "value": 0.18, "unit": "% ID/g"}, {"measurement": "Ex vivo activity small intestine", "setting": "LNCap tumor; Block (+PMPA)", "value": 0.35, "unit": "% ID/g"}, {"measurement": "Ex vivo activity small intestine", "setting": "LNCap tumor; mouse (1), no blocking", "value": 0.62, "unit": "% ID/g"}, {"measurement": "Ex vivo activity small intestine", "setting": "LNCap tumor; mouse (2), no blocking", "value": 0.22, "unit": "% ID/g"}, {"measurement": "Ex vivo activity spleen", "setting": "LNCap tumor; Block (+PMPA)", "value": 0.15, "unit": "% ID/g"}, {"measurement": "Ex vivo activity spleen", "setting": "LNCap tumor; mouse (1), no blocking", "value": 6.19, "unit": "% ID/g"}, {"measurement": "Ex vivo activity spleen", "setting": "LNCap tumor; mouse (2), no blocking", "value": 1.15, "unit": "% ID/g"}, {"measurement": "Ex vivo activity tumor", "setting": "LNCap tumor; Block (+PMPA)", "value": 0.53, "unit": "% ID/g"}, {"measurement": "Ex vivo activity tumor", "setting": "LNCap tumor; mouse (1), no blocking", "value": 14.73, "unit": "% ID/g"}, {"measurement": "Ex vivo activity tumor", "setting": "LNCap tumor; mouse (2), no blocking", "value": 14.14, "unit": "% ID/g"}, {"measurement": "stability", "setting": "[1]", "value": "exceeds 95%"}]}
